Laboratory results as given in patent publication US12491253B2, “Bicyclic peptide ligands specific for MT1-MMP” (BicycleRD Limited, priority 2018, dated 2025).

These substances were tested against MT1-MMP hemopexin domain (Homo sapiens, UniProt P50281). Details: Human MT1-MMP FP direct binding; fluoresceinated bicyclic peptide titrated with hemopexin domain; molecular scaffold TBMB.
Description: Direct Binding Fluorescence Polarisation or Anisotropy Assays are performed by titrating a constant concentration of fluorescent tracer (here, the fluoresceinated bicyclic peptide to be studied) with its binding partner (here, the MT1-MMP hemopexin domain). As the concentration of binding partner increases during the titration, the polarisation signal changes in proportion to the fraction of bound and unbound material. This allows determination of […] (Kd) quantitatively. Assay data can be fit using standard ligand binding equations.
The titrant (binding partner) concentration is varied from 0.1 nM up to typically 5 μM. The range is chosen such that the maximum change in fluorescent polarisation can be observed. Buffers employed are phosphate buffered saline in the presence of 0.01% Tween. Experiments were run in black 384 well low-bind/low volume plates (Corning 3820), and the fluorescent polarisation signal was measured using a BMG Pherastar FS plate reader. […] Fluoresceination may be performed on the N-terminal amino group of the peptide, which is separated from the bicycle core sequence by a sarcosine spacer (usually Sar5). This can be done during Fmoc solid phase synthesis or post-synthetically (after cyclisation with TBMB and purification) if the N-terminal amino group is unique to the peptide. Fluoresceination can also be performed on the C-terminus, usually on a Lysine introduced as the first C-terminal residue, which is then separated from the bicycle core sequence by a sarcosine spacer (usually Sar6). Thus, N-terminal tracers can have a molecular format described as Fluo-Gly-Sar6-A (BicycleCoreSequence), and (BicycleCoreSequence)-A-Sar6-K(Fluo) for a C-terminally fluoresceinated construct.
Fluorescent tracers used in the Examples include BCY1323-Sar6-K(FI), BCY1326-Sar6-K(FI), BCY3418-Sar6-K(FI), BCY3422-K(FI), and BCY1329-Sar6-K(FI).

Substance | Kd [µM]
fluoresceinated bicyclic peptide tracer on TBMB, used as BCY1323-Sar6-K(FI); sequence not given | 0.0359 ± 0.00665
fluoresceinated bicyclic peptide tracer on TBMB, used as BCY1326-Sar6-K(FI); sequence not given | 0.218
fluoresceinated bicyclic peptide tracer on TBMB, used as BCY1329-Sar6-K(FI); sequence not given | 0.0221 ± 0.011
